Laboratory results taken from patent publication US12122786B2, “Inhibitors of cyclic mono- and di-nucleotide phosphodiesterases and the uses thereof” (priority 2020, dated 2024).

Legend:
MTB CdnP [1] = biological target: T1, MTB CdnP (Mycobacterium tuberculosis, UniProt P71615); test: Intrinsic fluorescence binding assay; settings: 2 μM MTB CdnP, varying concentrations, 1× PBS
Procedure: (§1) Next, we sought to determine C82 mode of inhibition. Firstly, we confirmed that C82 does indeed bind to MTB CdnP, using intrinsic fluorescence assay^20. […] We then determined whether C82 could displace bound c-di-AMP from MTB CdnP. […] We also used a secondary fluorescent polarization displacement assay to confirm this finding. Briefly, fluorescent labeled c-di-GMP was incubated with MTB CdnP and treated with different concentrations of C82, or c-di-AMP in the presence of calcium to inhibit the cleavage of the bound CDN′″. […] We therefore concluded that C82 inhibits MTB CdnP by binding to a non-cyclic dinucleotide binding site. Kinetics studies reveal that C82 inhibits MTB CdnP with an apparent inhibition constant of approximately 8 μM (FIG. 8). Future structural work, beyond the scope of this work should help clarify the binding site of C82.
Solutions containing 2 μM MTB CndP, and varying concentrations of C82 in 1× PBS were incubated for 30 min at room temperature. Fluorescence spectra were obtained by measuring fluorescence intensities in the 310 nm to 400 nm range following an excitation at 290 nm wavelength.

ENPP1 = biological target: T2, ENPP1 (Homo sapiens, UniProt P22413); test: Selectivity, HPLC analysis of ENPP1 reaction; settings: 25 μM cGAMP, 4.58 nM ENPP1, 37° C., 60 min
T2 sequence (P22413 1-925): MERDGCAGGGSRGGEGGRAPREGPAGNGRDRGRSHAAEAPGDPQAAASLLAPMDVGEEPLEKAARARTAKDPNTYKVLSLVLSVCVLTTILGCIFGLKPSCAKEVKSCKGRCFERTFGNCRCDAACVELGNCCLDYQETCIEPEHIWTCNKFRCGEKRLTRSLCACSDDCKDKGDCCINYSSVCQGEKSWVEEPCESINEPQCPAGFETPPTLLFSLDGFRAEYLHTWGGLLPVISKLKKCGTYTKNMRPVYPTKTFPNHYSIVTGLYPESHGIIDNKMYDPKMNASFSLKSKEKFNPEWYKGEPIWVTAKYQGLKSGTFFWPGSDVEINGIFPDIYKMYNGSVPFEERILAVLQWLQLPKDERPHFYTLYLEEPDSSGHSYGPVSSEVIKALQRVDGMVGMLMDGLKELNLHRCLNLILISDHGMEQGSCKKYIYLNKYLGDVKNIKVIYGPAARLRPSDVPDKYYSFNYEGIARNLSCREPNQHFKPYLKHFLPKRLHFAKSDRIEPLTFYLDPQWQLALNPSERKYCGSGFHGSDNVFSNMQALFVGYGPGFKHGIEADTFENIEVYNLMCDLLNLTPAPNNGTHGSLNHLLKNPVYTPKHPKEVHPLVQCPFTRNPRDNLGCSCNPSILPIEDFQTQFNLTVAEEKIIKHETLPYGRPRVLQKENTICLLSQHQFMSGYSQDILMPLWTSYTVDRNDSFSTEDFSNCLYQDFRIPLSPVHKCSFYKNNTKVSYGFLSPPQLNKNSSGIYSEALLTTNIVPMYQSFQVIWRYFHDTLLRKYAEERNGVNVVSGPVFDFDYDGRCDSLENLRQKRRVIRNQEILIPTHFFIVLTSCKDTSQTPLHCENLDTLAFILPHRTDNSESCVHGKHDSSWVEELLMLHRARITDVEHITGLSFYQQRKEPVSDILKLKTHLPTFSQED

MTB CdnP [2] = biological target: T1, MTB CdnP; test: Fluorescence polarization competition assay; type: binding; settings: 150 μM MTB CdnP, 50 nM F-c-di-GMP, calcium
Procedure: (§2) FIG. 7A: unlabeled c-di-AMP inhibits ^32P-c-di-AMP sequestering by MTB CdnP in a concentration dependent manner. FIG. 7B: C82 effects on ^32P-c-di-AMP sequestering by MTB CdnP. […] CDA=c-di-AMP. ***=p-value<0.001. Statistical analysis conducted using the student's t-test.
as §1
Fluorescence polarization was determined using Biotek Cytation 5 multi-mode reader (excitation 485 nm/20 and emission 528 nm/20). Anisotropy was calculated using the GEN 5™ microplate reader and imaging software.

poxin = poxin (Vaccinia virus, UniProt Q01225); test: Selectivity, HPLC analysis of poxin reaction; settings: 20 μM 2′3 cGAMP, 5 nM poxin, room temperature, 20 min
MTB CdnP [3] = biological target: T1, MTB CdnP; test: Kinetics study (Dixon plot) by coralyne assay; type: biochemical; settings: 50 nM MTB CdnP, 30° C., read-out: apparent inhibition constant
Procedure: FIG. 8: C82 Dixon plot. Initial velocity was determined using slope of c-di-AMP hydrolysis kinetics.
as §1

GBS-CdnP = test: Selectivity, HPLC analysis of GBS CdnP reaction; settings: 50 μM c-di-AMP, 100 nM GBS CdnP, room temperature, 15 min
Yybt = Yybt (Bacillus subtilis, UniProt P37484); test: Selectivity, HPLC analysis of Yybt reaction; settings: 70 μM c-di-AMP, 1 μM Yybt, 37° C., 60 min
MTB CdnP [4] = biological target: T1, MTB CdnP; test: HPLC analysis of c-di-AMP cleavage by MTB CdnP; type: biochemical; settings: 20 μM compound, 100 nM MTB CdnP, 70 μM c-di-AMP, 37° C.
MTB CdnP [5] = biological target: T1, MTB CdnP; type: biochemical; settings: 20 to 150 μM inhibitor, 0.5 μM MTB CdnP, 1 h at 37° C.
RocR = RocR (Pseudomonas aeruginosa, UniProt Q9HX69); test: Selectivity, HPLC analysis of RocR reaction; settings: 25 μM c-di-GMP, 10 nM RocR, 37° C., 60 min
[6] = test system: mammalian cells (MDA-MB-231, and MRC-5); settings: up to 100 μM, 24 h
PDE5A = biological target: T3, PDE5A (Homo sapiens, UniProt O76074); test: Cyclic mononucleotide phosphodiesterase inhibition (PDE5A), Transcreener fluorescence polarization assay; type: biochemical; settings: 10 μM of compound, 1 μM cGMP, 1 h
T3 construct: purchased Reaction Biology
Procedure: Cyclic mononucleotide phosphodiesterase inhibition (PDE5A): 10 μM of compound was added to PDE5A in Buffer (10 mM Tris, pH 7.5, 5 mM MgCl2, 0.01% Brij 35, 1 mM DTT, and 1% DMSO). 1 μM cGMP was added and the reaction was incubated for 1 h. The assay used detects the reaction product, GMP, by Transcreener Fluorescence polarization assay (Reaction Biology).

MTB CdnP [7] = biological target: T1, MTB CdnP; test: Differential radial capillary action of ligand assay (DRaCALA); type: binding; settings: 20 μM MTB CdnP, 200 pM 32P c-di-AMP; C82 even at 300 μM
Procedure: as §2, §1
5 μl of the reaction mixture was pipetted onto dry untreated nitrocellulose membrane (GE Healthcare) and allowed to dry at room temperature. The nitrocellulose membrane was exposed to the GE Storage Phosphor screen for 8 h and then visualized with Typhoon™ FLA 9500 biomolecular imager.

MTB CdnP [8] = biological target: T1, MTB CdnP; test: IC50 determination of MTB CdnP inhibition, coralyne assay; type: biochemical; settings: 50 nM MTB CdnP and 80 μM c-di-AMP, read-out: IC50 of MTB CdnP enzymatic activity inhibition
PDE4 = settings: read-out: IC50 (PDE4 inhibitor); cited from earlier work
PDE3 = settings: read-out: IC50 (PDE3 inhibitor); cited from earlier work
PDE10 = settings: read-out: IC50 (PDE10 inhibitor); cited from earlier work

With `CCc1cc2c(=O)n(CC(=O)Nc3ccccc3OC)cnc2s1` [Compound C82] the “binding to MTB CdnP (intrinsic fluorescence decay)” value (MTB CdnP [1]) was “does bind to MTB CdnP”, the “inhibition of ENPP1” value (ENPP1) was “did not inhibit” and the “displacement of fluorescent labeled c-di-GMP from MTB CdnP (fluorescence polarization)” value (MTB CdnP [2]) was “did not displace the fluorescent labeled c-di-GMP”. The inhibition of poxin (poxin) was “did not inhibit”, the Ki (MTB CdnP [3]) was roughly 8 µM and the “inhibition of GBS-CdnP” value (GBS-CdnP) was “did not inhibit”. For the same molecule, the “inhibition of Yybt” value (Yybt) was “did not inhibit”, the “inhibition of c-di-AMP cleavage by MTB CdnP (HPLC), 3 h incubation” value (MTB CdnP [4]; 3 h) was “most potent inhibitory effects” and the “inhibition of c-di-AMP cleavage by MTB CdnP (HPLC), overnight (12 h) incubation” value (MTB CdnP [4]; 12 h) was “retained any inhibitory effect”. For the same molecule, the “inhibition of c-di-AMP hydrolysis by MTB CdnP (TLC), varying inhibitor concentrations” value (MTB CdnP [5]) was “most potent inhibition”, the “inhibition of RocR” value (RocR) was “did not inhibit” and the “cytotoxicity against mammalian cells (cell viability)” value [6] was “did not significantly inhibit cell viability”. For the same molecule, the “% inhibition (PDE5A)” value (PDE5A) was 32.00%, the “displacement of radiolabeled c-di-AMP from MTB CdnP (DRaCALA)” value (MTB CdnP [7]) was “did not displace radiolabeled c-di-AMP” and the IC50 (MTB CdnP [8]) was 17.4 µM.

In the case of `CCOc1cc([C@@H](CS(C)(=O)=O)N2C(=O)c3cccc(NC(C)=O)c3C2=O)ccc1OC` [apremilast], the IC50 (PDE4) is listed as 0.074 µM.

In the case of `Nc1ncnc2c1ncn2[C@@H]1O[C@@H]2COP(=O)(O)O[C@H]3[C@@H](O)[C@H](n4cnc5c(N)ncnc54)O[C@@H]3COP(=O)(O)O[C@H]2[C@H]1O` [c-di-AMP, reference compound], the “displacement of radiolabeled c-di-AMP from MTB CdnP (DRaCALA)” value (MTB CdnP [7]) is reported as “could displace radiolabeled c-di-AMP”.

In the case of `CSc1ccc(C(=O)c2[nH]c(=O)[nH]c2C)cc1` [enoximone], the IC50 (PDE3) is listed as 10 µM.

In the case of `COc1ccc(Cc2nccc3cc(OC)c(OC)cc23)cc1OC` [papaverine], the IC50 (PDE10) is given as 0.0923 µM.
